# From ChEMBL document CHEMBL5357052, “Diastereomers of Steroidal Alkaloids with Cytotoxic Activities against Non-Small-Cell Lung Cancer from the Bulbs of Fritillaria sinica” (2024)
# Tests used:
# Type in all cases: functional
# H9c2 = assay: Antioxidant activity against H2O2 treated rat H9c2 cells assessed as inhibition of MDA level at 10 uM incubated for 4 hrs followed by H2O2 administration by colorimetric assay relative to control; parameters: scale not given: the % may be the effect or the level left
# NCI-H460 = assay: Cytotoxicity against human NCI-H460 cells assessed as reduction in cell growth incubated for 48 hrs by CCK8 method
# A549 = assay: Cytotoxicity against human A549 cells assessed as reduction in cell growth incubated for 48 hrs by CCK8 method
# RAW264.7 = assay: Antiinflammatory activity in mouse RAW264.7 cells assessed as inhibition of LPS induced NO production at 10 uM preincubated for 24 hrs followed by LPS stimulation and measured after 24 hrs by Griess assay relative to control; parameters: scale not given: the % may be the effect or the level left; settings: time 48 hrs
SMILES,Activity (H9c2) [%],CC50 (NCI-H460) [µM],CC50 (A549) [µM],Activity (RAW264.7) [%]
C[C@H]1CC[C@H]2[C@H](C)[C@H]3CC[C@@H]4[C@@H](C[C@H]5[C@H]4C[C@@H](O)[C@H]4C[C@@H](O)CC[C@@]45C)[C@@H]3CN2C1,38,10,19,8.3
C[C@H]1CC[C@H]2[C@H](C)[C@@H]3CC[C@@H]4[C@@H](C[C@H]5[C@H]4CC(=O)[C@H]4C[C@@H](O)CC[C@@]45C)[C@@H]3CN2C1,39,46,30,23
C[C@H]1CC[C@H]2[C@H](C)[C@H]3CC[C@@H]4[C@@H](C[C@H]5[C@H]4CC(=O)[C@H]4C[C@@H](O)CC[C@@]45C)[C@@H]3CN2C1,34,37,22,42
C[C@@H]1CC[C@H]2[C@H](C)[C@H]3CC[C@@H]4[C@@H](C[C@H]5[C@H]4C[C@H](O)[C@H]4C[C@@H](O)CC[C@@]45C)[C@H]3C[N+]2([O-])C1 (stereo not given in full),15,45,38,40
C[C@@H]1CC[C@H]2[C@H](C)[C@H]3CC[C@@H]4[C@@H](C[C@H]5[C@H]4CC(=O)[C@H]4C[C@@H](O)CC[C@@]45C)[C@H]3C[N+]2([O-])C1 (stereo not given in full),39,11,9.5,1.4
C[C@H]1CC[C@H]2[C@H](C)[C@H]3CC[C@@H]4[C@@H](C[C@H]5[C@H]4C[C@H](O)[C@H]4C[C@@H](O)CC[C@@]45C)[C@@H]3CN2C1,29,20,11,57
C[C@@H]1CC[C@H]2[C@H](C)[C@H]3CC[C@@H]4[C@@H](C[C@H]5[C@H]4C[C@H](O)[C@H]4C[C@@H](O)CC[C@@]45C)[C@@H]3C[N+]2([O-])C1 (stereo not given in full),48,45,35,24
C[C@@H]1CC[C@H]2[C@H](C)[C@H]3CC[C@@H]4[C@@H](C[C@H]5[C@H]4C[C@H](O)[C@H]4C[C@@H](O)CC[C@@]45C)[C@@H]3CN2C1,15,40,23,7.9
C[C@@H]1CC[C@H]2[C@H](C)[C@H]3CC[C@@H]4[C@@H](C[C@H]5[C@H]4CC(=O)[C@H]4C[C@@H](O[C@@H]6O[C@H](CO)[C@@H](O)[C@H](O)[C@H]6O)CC[C@@]45C)[C@H]3CN2C1,53,59,19,7.8
C[C@@H]1CC[C@H]2[C@H](C)[C@@H]3CC[C@@H]4[C@@H](C[C@H]5[C@H]4CC(=O)[C@H]4C[C@@H](O)CC[C@@]45C)[C@@H]3CN2C1,21,37,31,47
C[C@H]1CC[C@H]2[C@H](C)c3ccc4c(c3CN2C1)C[C@H]1[C@H]4C[C@H](O)[C@H]2C[C@@H](O)CC[C@@]21C,43,65,34,2.1
C[C@@H]1CC[C@H]2[C@H](C)[C@H]3CC[C@@H]4[C@@H](C[C@H]5[C@H]4CC(=O)[C@H]4C[C@@H](O)CC[C@@]45C)[C@@H]3CN2C1,20,49,29,-1.3
CC1=C2C[C@H]3[C@@H](CC(=O)[C@H]4C[C@@H](O)CC[C@@]43C)[C@@H]2CC[C@]12O[C@@H]1C[C@H](C)CN[C@H]1[C@H]2C,72,17,9.6,66
C[C@@H]1CC[C@H]2[C@@H](C)[C@H]3CC[C@@H]4[C@@H](C[C@H]5[C@H]4CC(=O)[C@H]4C[C@@H](O[C@@H]6O[C@H](CO)[C@@H](O)[C@H](O)[C@H]6O)CC[C@@]45C)[C@@H]3CN2C1,24,54,39,6.1
C[C@@H]1CC[C@H]2[C@H](C)c3ccc4c(c3CN2C1)C[C@H]1[C@H]4C[C@H](O)[C@H]2C[C@@H](O)CC[C@@]21C,58,65,52,45
CC1=C2C[C@H]3[C@@H](CC(=O)[C@H]4C[C@H](O)CC[C@@]43C)[C@@H]2CC[C@]12O[C@@H]1C[C@H](C)CN[C@H]1[C@H]2C,53,29,15,73
C[C@H]1CC[C@@H]2[C@H](C)[C@@H]3CC[C@@H]4[C@@H](C[C@H]5[C@H]4CC(=O)[C@H]4C[C@@H](O)CC[C@@]45C)[C@@H]3CN2C1,5.4,25,6.8,62
C[C@@H]1CC[C@H]2[C@H](C)[C@H]3CC[C@@H]4[C@@H](C[C@H]5[C@H]4CC(=O)[C@H]4C[C@@H](O)CC[C@@]45C)[C@H]3CN2C1,24,54,43,44
C[C@@H]1CC[C@H]2[C@H](C)[C@H]3CC[C@@H]4[C@@H](C[C@H]5[C@H]4CC(=O)[C@H]4C[C@@H](O)CC[C@@]45C)[C@@H]3C[N+]2([O-])C1 (stereo not given in full),29,37,21,0.9
C[C@H]1CC[C@@H]2[C@H](C)[C@@H]3CC[C@@H]4[C@@H](C[C@H]5[C@H]4C[C@@H](O)[C@H]4C[C@@H](O)CC[C@@]45C)[C@@H]3CN2C1,33,12,10,27
